In publication PMC9739695, “Water-Soluble Salts Based on Benzofuroxan Derivatives—Synthesis and Biological Activity” (International Journal of Molecular Sciences, 2022):
Read-outs that look alike come from different tables or passages of the source.

Experiments:
[1] = system: alfalfa seeds; test: Pre-sowing seed treatment, sowing qualities of alfalfa seeds; format: in vivo; details: for germination energy / laboratory germination: control 76
Description: (§1) When evaluating the effectiveness of treatment of wheat, alfalfa, barley, rice, and sorghum seeds as fungicidal and bactericidal agents with preparation compounds at concentrations of 10, 20, and 40 mmol, their effect on the suppression of seed infection was evaluated.
(§2) […] The sowing qualities were evaluated (germination energy for 3–4 days, laboratory germination for 7–8 days) according to GOST 12038-84 [60]. Sowing qualities of seeds were determined in wet chambers. According to the sample, 50 seeds were taken in 4-fold repetition.

[2] = system: sorghum seeds; test: Pre-sowing seed treatment, sowing qualities of sorghum seeds; format: in vivo; details: for germination energy: control 52.3; for laboratory germination: control 57
Description: as §1, §2

[3] = system: wheat seeds; test: Pre-sowing seed treatment, sowing qualities of wheat seeds; format: in vivo; details: for germination energy: control 82; for laboratory germination: control 85.7
Description: as §1, §2

[4] = system: rice seeds; test: Pre-sowing seed treatment, sowing qualities of rice seeds; format: in vivo; details: for germination energy: control 71.4; for laboratory germination: control 95.2
Description: as §1, §2

[5] = system: glycolysis in SH-SY5Y cells; test: Glycolysis stress test (ECAR, Seahorse XF96e); format: cell-based, Human; details: 100 µM, ECAR
Description: Using the cell metabolism analyzer Agilent Seahorse XF96e Analyzer (Seahorse Bioscience, North Billerica, MA, USA), the rate of extracellular acidification of the medium (ECAR) in cells of tumor origin SH-SY5Y was evaluated as a glycolysis measure.
The ability of compounds to suppress anaerobic glycolysis was studied using the Agilent Seahorse XF96e Analyzer (Seahorse Bioscience, North Billerica, MA, USA) by the level of hydrogen proton production in the studied samples on cell lines of neuroblastoma SH-SY5Y using a glycolysis stress test [62]. The rate of extracellular acidification of the medium was measured in real time, which made it possible to assess the intensity of glycolysis in cells by fixing the three main parameters of the glycolytic function: basal glycolysis, glycolytic capacity, and glycolytic reserve.
SH-SY5Y cells in the exponential growth phase were seeded in a 96-well Seahorse cell culture microplate. The planting density of the cell culture was 2 × 10^4/well. […]
The test compounds were added from port A at a concentration of 100 μM. To determine the effect of test compounds on basal glycolysis of neoplastic cells, 10 mM glucose was added from port B. The maximum glycolytic capacity was assessed by injecting oligomycin at a concentration of 1 μM from port C. […]

[6] = system: HeLa (cervical tumor); test: Cell viability, MTT test; format: cell-based; details: Homo sapiens, read-out: IC50 (concentration causing 50% inhibition of cell population growth)
Description: (§3) In this work, the cytotoxic potential of the water-soluble salts based on benzofuroxan was determined by the effect of compounds on the survival of the cell tumor origin cultures (SH-SY5Y, Hep2, A549, HeLa) using the MTT test. To understand how the synthesized compounds can influence the healthy microenvironment in the body, the effect of substances on the viability of a normal Hek 293 cell culture was additionally evaluated.
(§4) Human cell cultures of tumor origin—SH-SY5Y (neuroblastoma), HeLa (cervical tumor), Hep-2 (larynx carcinoma), A549 (adenocarcinomic human alveolar basal epithelial cells)—and normal cell line Hek 293 (human embryonic kidneys), provided by the Laboratory of Tumor Cell Genetics of the Scientific Research Institute of Carcinogenesis, N.N. Blokhin National Medical Research Center of Oncology, as well as the Institute of Cytology of the Russian Academy of Sciences, were grown in a nutrient medium DMEM (PanEco, Moscow, Russia) and MEM (PanEco, Moscow, Russia), containing fetal bovine serum (10% by volume) (ThermoFisher Scientific, Paisley, UK), Glutamax (2 mM) (Gibco, Scotland, UK), and penicillin-streptomycin (1% by volume) (PanEco, Moscow, Russia). The cultivation was carried out at 37 °C in a humidified CO2 atmosphere (5%).
(§5) Cell viability was determined by MTT test. Cells were seeded in a 96-well plate in the amount of 1 × 10^4 cells/200µLof complete nutrient medium and cultured at 37 °C in CO2 (5%). After 24 h of incubation, various concentrations of test compounds in the range from 0.1 to 100 μM, were added to the cell cultures, and then the cells were cultured under the same conditions for 24 and 72 h. For each concentration, the experiment was carried out in triplicate.
(§6) All compounds were dissolved in DMSO, then diluted with the medium to the required concentration. […] The DMSO was also added to the control wells in a volume of 1%. After the incubation time, MTT (3-(4,5-dimethylthiazol-2-yl)-2,5-diphenyltetrazolium bromide, 5 mg/mL) was added to each well and plates were additionally incubated for 2 h (until the characteristic color appeared).
(§7) Using a plate analyzer (Cytation3, BioTech Instruments Inc., Winooski, VT, USA), the optical density was determined at 530 nm. The concentration value causing 50% inhibition of cell population growth (IC50) was determined from dose-dependent curves.

[7] = system: A549 (adenocarcinomic human alveolar basal epithelial cells); test: Cell viability, MTT test; format: cell-based; details: read-out: IC50 (concentration causing 50% inhibition of cell population growth)
Description: as §3, §4, §5, §6, §7

[8] = system: Hep-2 (larynx carcinoma); test: Cell viability, MTT test; format: cell-based; details: Homo sapiens, read-out: IC50 (concentration causing 50% inhibition of cell population growth)
Description: as §3, §4, §5, §6, §7

[9] = system: barley seeds; test: Pre-sowing seed treatment, sowing qualities of barley seeds; format: in vivo; details: for germination energy / laboratory germination: control 95.2
Description: as §1, §2

[10] = system: BDF1 mice; test: Acute toxicity, single intraperitoneal administration; format: in vivo
Description: To determine LD50, a curve of increasing toxicity was built with increasing dose, based on which the following parameters were additionally determined: MTD, LD16, LD84 and LD100.
In the experiment, clinically healthy animals were used, which were kept in the same conditions with a 12-h light and free access to water and food. Each experimental group included six animals. […] Control animals received 0.9% NaCl solution. Animals were monitored continuously for 4 h on the first day after administration of the test compounds. […] Calculation of toxic doses was performed using probit analysis.

[11] = single intraperitoneal administration, doses given in mg/kg, probit analysis

## CN(C)CCCNc1c([N+](=O)[O-])c(Cl)cc2c1no[n+]2[O-].Cl [4g, 6-chloro-4-(3-(dimethylammonio)propylamino)-5-nitrobenzo[c][1,2,5]oxadiazole 1-oxide chloride]
[1]; 10 mmol
  germination energy: 56.6%
  laboratory germination: 60%
[1]; 20 mmol
  germination energy: 43.3%
  laboratory germination: 63.3%
[1]; 40 mmol
  sowing qualities of seeds compared with control: higher than controls
  germination energy: 80%
  laboratory germination: 80%
[2]; 10 mmol
  germination energy: 36.6%
  laboratory germination: 50%
[2]; 20 mmol
  sowing qualities of seeds compared with control: higher than in the control
  germination energy: 61.9%
  laboratory germination: 71.4%
[2]; 40 mmol
  sowing qualities of seeds compared with control: higher than in the control
  germination energy: 57.2%
  laboratory germination: 80.9%
[3]; 10 mmol
  germination energy: 42.8%
  laboratory germination: 47.6%
[3]; 20 mmol
  germination energy: 80.9%
  laboratory germination: 90.4%
[3]; 40 mmol
  germination energy: 80.9%
  laboratory germination: 80.9%
[4]; 10 mmol
  germination energy: 38%
  laboratory germination: 47.6%
[4]; 20 mmol
  germination energy: 71.4%
  laboratory germination: 100%
[4]; 40 mmol
  sowing qualities of seeds compared with control: at the control level
  germination energy: 76.1%
  laboratory germination: 95.2%
[5]
  glycolytic parameters (basal glycolysis, glycolytic capacity, glycolytic reserve): reaching a minimum
[6]; 24 h
  IC50: 97.8 ± 3.31 µM
[6]; 72 h
  IC50: 83.1 ± 4.29 µM
[7]; A549, 24 h
  IC50: 82 ± 1.54 µM
[7]; A549, 72 h
  IC50: 64.2 ± 2.12 µM
[8]; HEp-2, 24 h
  IC50: 70.3 ± 1.28 µM
[8]; HEp-2, 72 h
  IC50: 58 ± 2.9 µM
[9]; 10 mmol
  germination energy: 52.3%
  laboratory germination: 52.3%
[9]; 20 mmol
  sowing qualities of seeds compared with control: higher than control
  germination energy: 100%
  laboratory germination: 100%
[9]; 40 mmol
  sowing qualities of seeds compared with control: higher than control
  germination energy: 100%
  laboratory germination: 100%
[10]; single i.p.
  toxicity class from acute toxicity study: highly toxic
[10]; single i.p. 5 mg/kg, 0 Day, control 21.55 ± 0.28
  Body Weight: 21.88 ± 0.45 g
[10]; single i.p. 5 mg/kg, 1 Day, control 21.43 ± 0.56
  Body Weight: 21.59 ± 0.55 g
[10]; single i.p. 5 mg/kg, 2 Days, control 21.67 ± 0.77
  Body Weight: 21.64 ± 0.71 g
[10]; single i.p. 5 mg/kg, 3 Days, control 21.99 ± 0.79
  Body Weight: 21.72 ± 0.79 g
[10]; single i.p. 5 mg/kg, 7 Days, control 22.80 ± 0.44
  Body Weight: 22.12 ± 0.75 g
[10]; single i.p. 5 mg/kg, 14 Days, control 23.96 ± 0.68
  Body Weight: 23.19 ± 1.21 g
[10]; single i.p. 10 mg/kg, 0 Day, control 21.55 ± 0.28
  Body Weight: 21.99 ± 0.21 g
[10]; single i.p. 10 mg/kg, 1 Day, control 21.43 ± 0.56
  Body Weight: 21.54 ± 0.41 g
[10]; single i.p. 10 mg/kg, 2 Days, control 21.67 ± 0.77
  Body Weight: 21.60 ± 0.52 g
[10]; single i.p. 10 mg/kg, 3 Days, control 21.99 ± 0.79
  Body Weight: 21.86 ± 0.66 g
[10]; single i.p. 10 mg/kg, 7 Days, control 22.80 ± 0.44
  Body Weight: 22.84 ± 1.06 g
[10]; single i.p. 10 mg/kg, 14 Days, control 23.96 ± 0.68
  Body Weight: 23.70 ± 1.12 g
[10]; single i.p. 15 mg/kg, 0 Day, control 21.55 ± 0.28
  Body Weight: 21.86 ± 0.57 g
[10]; single i.p. 15 mg/kg, 1 Day, control 21.43 ± 0.56
  Body Weight: 21.36 ± 2.51 g
[10]; single i.p. 15 mg/kg, 2 Days, control 21.67 ± 0.77
  Body Weight: 21.60 ± 2.43 g
[10]; single i.p. 15 mg/kg, 3 Days, control 21.99 ± 0.79
  Body Weight: 22.11 ± 3.03 g
[10]; single i.p. 15 mg/kg, 7 Days, control 22.80 ± 0.44
  Body Weight: 22.41 ± 2.74 g
[10]; single i.p. 15 mg/kg, 14 Days, control 23.96 ± 0.68
  Body Weight: 23.15 ± 2.14 g
[10]; single i.p. 20 mg/kg, 0 Day, control 21.55 ± 0.28
  Body Weight: 22.37 ± 0.80 g
[10]; single i.p. 20 mg/kg, 1 Day, control 21.43 ± 0.56
  Body Weight: 21.99 ± 3.09 g
[10]; single i.p. 20 mg/kg, 2 Days, control 21.67 ± 0.77
  Body Weight: 21.77 ± 3.79 g
[10]; single i.p. 20 mg/kg, 3 Days, control 21.99 ± 0.79
  Body Weight: 21.85 ± 3.18 g
[10]; single i.p. 20 mg/kg, 7 Days, control 22.80 ± 0.44
  Body Weight: 22.81 ± 3.89 g
[10]; single i.p. 20 mg/kg, 14 Days, control 23.96 ± 0.68
  Body Weight: 23.41 ± 3.01 g
[10]; single i.p. 25 mg/kg, 0 Day, control 21.55 ± 0.28
  Body Weight: 21.87 ± 0.74 g
[10]; single i.p., doses of 10–25 mg/kg
  time after administration at which death of animals began: 5 to 30 min
[10]; single intraperitoneal administration, doses given in mg/kg
  LD100: 25
[10]; [11]
  LD16: 9.4
  LD84: 20.3
